“And” between values parts separate entries of the source, which are not always exact repeats. Equal entries are not always repeated.
Key:
[1] = molecular target: T1, hydroxymethyldihydropteridine pyrophosphokinase (HMPPS) (Escherichia coli, UniProt P26281); assay: HMPPS assay: transfer of terminal phosphate of ATP-γ-P^32 to Pt; assay type: biochemical, E. coli
T1 construct: obtained from an extract of E. coli; endogenous in cells; host or cells: E. coli extract; HMPPS separated from synthetase on Sephadex G-100 (method of Richey and Brown 1969)
Source text: (a) An assay for HMPPS was developed in which the transfer of the terminal phosphate of ATP-γ-P^32 to Pt could be monitored and correlated with the amount of inhibition of HMPPS by the compound under test.
The compound under test was incorporated into various formulations comprising metabolites and enzymes contained in test tubes, as indicated in TABLE 1.
II--a source of HMMP S, obtained from an extract of E. coli and separated from `synthetase` on Sephadex G-100, according to the method of Richey and Brown in J. Biol. Chem. 244, 1582-1592 (1969)
Control tubes 10 to 12 include a source of both HMPPS and synthetase, unlabelled ATP, 0.1M MgCl2.6H2 O and labelled pAB.
Tubes 1 to 9 containing the amounts of components shown in the Table, were filled up to 200 μl with distilled water, incubated for 60 minutes at 37° C. and then chilled on ice. Dextrose (20 μl containing 72.1 mg/ml) and hexokinase (5 μl containing 2000 units/ml) were added to the solution, which was then allowed to stand at room temperature for 15 minutes. `Darco-G-60` (Registered Trade Mark) (10 mg) was added to each tube and the contents mixed periodically for 10 minutes. The charcoal was removed through a "Millipore AP 250 2200" (Registered Trade Mark) filter and the filter was washed with three 10 ml portions of cold water. The Charcoal and the filter were then radioactively counted.
The radioactive count from the contents of tubes 2 and 3 was taken as the maximum count, since these tubes contained no test compound and thus gave 0% enzyme inhibition. The percentage inhibition produced by the contents of the remaining tubes could then be calculated by relating their radioactive count to the maximum, as determined above.

[2] = molecular target: T2, dihydropteroate synthetase (Escherichia coli, UniProt P0AC13); assay: `synthetase` assay: formation of dihydropteroate-C^14; assay type: biochemical, E. coli
T2 construct: incubating an extract of E. coli with pAB-7-C^14; endogenous in cells; host or cells: E. coli extract (synthetase separated from HMPPS on Sephadex G-100, as concluded from part (a))
Protocol: (b) The activity of the test compound against `synthetase` was determined as follows, by monitoring the formulation of dihydropteroate-C^14.
A pool of Pt was prepared from ATP neutralised (50 μl, 0.1M), MgCl2.6H2 O (50 μl, 0.1M), dithiothreitol (100 μl, 0.1M), tris buffer (100 μl, 0.4M, pH 8.3), HMPt (25 μl, 876 μM) and 170 μl of a solution containing HMPPS. The mixture was incubated for 60 minutes at 37° C., chilled briefly on ice and then dextrose (100 μl containing 72.1 mg/ml) and hexokinase (20 μl containing 2000 units/ml) were added at room temperature to the solution, which was allowed to stand at this temperature for 15 minutes.
A solution of MgCl2.6H2 O (10 μl, 0.1M), pAB-C^14 (10 μl, 0.4 mM), dithiothreitol (20 μl, 0.1M) and tris buffer (20 μl, 0.4M, pH8.3) was made in each of five test tubes and then 80 μl of the contents of the pool added to each, together with synthetase and/or test compound as indicated in TABLE 2. The solution was then made up to 200 μl with distilled water.
All seven tubes were then incubated for 30 minutes at 37° C., chilled on ice and then these, together with control tubes 10 to 12 from part (a), were chromatographically analysed as follows:
100 μl of the contents of each of the tubes was spotted onto Whatman No. 3 MM chromatography paper (2×20 cm) at the `origin`, the run descending in a Sorenson buffer of potassium and sodium phosphates (0.1M, pH 7.0) for 10 to 15 cm.

[3] = test system: Staphylococcus aureus; assay: M.I.C. in Wellcome Nutrient Agar, 18 hours at 37° C.; assay type: cell-based
[4] = test system: Pseudomonas aeruginosa; assay: zone inhibition, pteridine in agar, drugs in well; assay type: cell-based; conditions: for complete zone inhibition, SMX (300) / zone including partial inhibition, SMX (300): SMX 300 μg/ml; for zone including partial inhibition, TMP (30): TMP 30 μg/ml; for complete zone inhibition, TMP + SMX (5) (100) / zone including partial inhibition, TMP + SMX (5) (100): TMP 5 + SMX 100 μg/ml
Protocol: (§1) The pteridine was included in a soya peptone medium of low thymidine content (Wellcotest Sensitivity Test Agar) contained in a Petri-dish and the other component(s) added to the well resulting from the removal of a small plug from the medium. The surface of the medium was inoculated with the test organism and then incubated.

[5] = test system: Staphylococcus aureus; assay: zone inhibition, pteridine in agar, drugs in well; assay type: cell-based; conditions: for complete zone inhibition, SMX (300) / zone including partial inhibition, SMX (300): SMX 300 μg/ml; for complete zone inhibition, TMP + SMX (5) (100) / zone including partial inhibition, TMP + SMX (5) (100): TMP 5 + SMX 100 μg/ml
Protocol: as §1

[6] = final concn. 0.93 × 10^-4 M, tubes 8, 9
[7] = pteridine 3 μg/ml, TMP 30 μg/ml
[8] = pteridine 10 μg/ml, TMP 30 μg/ml

T2 sequence (P0AC13 whole entry): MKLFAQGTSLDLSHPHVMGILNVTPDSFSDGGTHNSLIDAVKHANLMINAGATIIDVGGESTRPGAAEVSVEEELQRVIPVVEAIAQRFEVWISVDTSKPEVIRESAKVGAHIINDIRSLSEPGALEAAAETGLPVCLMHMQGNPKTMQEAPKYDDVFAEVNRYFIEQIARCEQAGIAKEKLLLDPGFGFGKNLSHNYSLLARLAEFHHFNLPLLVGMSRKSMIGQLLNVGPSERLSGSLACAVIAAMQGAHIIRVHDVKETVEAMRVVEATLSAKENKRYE
T1 sequence (P26281 whole entry): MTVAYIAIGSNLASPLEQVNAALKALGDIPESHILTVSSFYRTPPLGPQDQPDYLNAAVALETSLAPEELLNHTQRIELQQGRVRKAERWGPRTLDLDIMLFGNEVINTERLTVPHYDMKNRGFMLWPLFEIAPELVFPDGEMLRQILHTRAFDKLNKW

Question: Which results are given for `CC1(C)Nc2nc(N)nc(O)c2N=C1CO` [DMHP, 2-amino-4-hydroxy-6-hydroxymethyl-7,7-dimethyl-7,8-dihydropteridine]?
Answer: IC50 [1]: 2 to 4 µM; % Inhibn. [1, 6]: 95%; inhibition at 93 µM [1, 6]: 98%; % Inhibn. ([1]; final concn. 1 × 10^-5 M, tubes 6, 7): 87% and 55%; inhibition at 2.5e-10 µM ([1]; read-out: % Inhibn., test compound final concn., tubes 4, 5): 44%; % Inhibn. ([1]; test compound final concn., tubes 4, 5): 33%; inhibition at 10 µM ([2]; final concentration 1 × 10^-5 M): 0%; inhibition at 2.5 µM ([2]; final concentration 2.5 × 10^-6 M): 5%; inhibition at 87 µM ([2]; final concentration 8.7 × 10^-5 M): 9%; Sulphamethoxazole increase in Activity ([3]; Conc. of DMHP 3.1 μg/ml): 1 ×; Trimethoprim in the Presence of × 20 sulphamethoxazol increase in Activity ([3]; Conc. of DMHP 3.1 μg/ml): 10 ×; Trimethoprim increase in Activity ([3]; Conc. of DMHP 3.1 μg/ml): 10 ×; Sulphamethoxazole increase in Activity ([3]; Conc. of DMHP 6.2 μg/ml): 10 ×; Trimethoprim in the Presence of × 20 sulphamethoxazol increase in Activity ([3]; Conc. of DMHP 6.2 μg/ml): 30 ×; Trimethoprim increase in Activity ([3]; Conc. of DMHP 6.2 μg/ml): 30 ×; Sulphamethoxazole increase in Activity ([3]; Conc. of DMHP 25 μg/ml): 100 ×; Trimethoprim in the Presence of × 20 sulphamethoxazol increase in Activity ([3]; Conc. of DMHP 25 μg/ml): > 300 ×; Trimethoprim increase in Activity ([3]; Conc. of DMHP 25 μg/ml): 300 ×; complete zone inhibition, SMX (300) ([4]; pteridine 3 μg/ml): 9.0 centimeters; zone including partial inhibition, SMX (300) ([4]; pteridine 3 μg/ml): 14.0 centimeters; zone including partial inhibition, TMP (30) ([4]; pteridine 3 μg/ml): 5.0 centimeters; complete zone inhibition, TMP + SMX (5) (100) ([4]; pteridine 3 μg/ml): 8.0 centimeters; zone including partial inhibition, TMP + SMX (5) (100) ([4]; pteridine 3 μg/ml): 11.0 centimeters; complete zone inhibition, SMX (300) ([4]; pteridine 10 μg/ml): 15.0 centimeters; zone including partial inhibition, SMX (300) ([4]; pteridine 10 μg/ml): 20.0 centimeters; zone including partial inhibition, TMP (30) ([4]; pteridine 10 μg/ml): 6.0 centimeters; complete zone inhibition, TMP + SMX (5) (100) ([4]; pteridine 10 μg/ml): 12.0 centimeters; zone including partial inhibition, TMP + SMX (5) (100) ([4]; pteridine 10 μg/ml): 15.0 centimeters; complete zone inhibition, SMX (300) ([5]; pteridine 3 μg/ml): 4.0 centimeters; zone including partial inhibition, SMX (300) ([5]; pteridine 3 μg/ml): 10.0 centimeters; complete zone inhibition, TMP (30) [5, 7]: 8.0 centimeters; zone including partial inhibition, TMP (30) [5, 7]: 10.0 centimeters; complete zone inhibition, TMP + SMX (5) (100) ([5]; pteridine 3 μg/ml): 10.0 centimeters; zone including partial inhibition, TMP + SMX (5) (100) ([5]; pteridine 3 μg/ml): 12.0 centimeters; complete zone inhibition, SMX (300) ([5]; pteridine 10 μg/ml): 5.0 centimeters; zone including partial inhibition, SMX (300) ([5]; pteridine 10 μg/ml): 12.0 centimeters; complete zone inhibition, TMP (30) [5, 8]: 8.5 centimeters; zone including partial inhibition, TMP (30) [5, 8]: 10.5 centimeters; complete zone inhibition, TMP + SMX (5) (100) ([5]; pteridine 10 μg/ml): 10.5 centimeters; zone including partial inhibition, TMP + SMX (5) (100) ([5]; pteridine 10 μg/ml): 12.0 centimeters; complete zone inhibition, TMP (30) ([5]; pteridine 30 μg/ml in medium, TMP 30 μg/ml in well, about 6× magnification): 11.0 centimeters; complete zone inhibition, SMX (300) ([5]; pteridine 30 μg/ml): 9.0 centimeters; zone including partial inhibition, SMX (300) ([5]; pteridine 30 μg/ml): 14.5 centimeters; zone including partial inhibition, TMP (30) ([5]; pteridine 30 μg/ml, TMP 30 μg/ml): 14.0 centimeters; complete zone inhibition, TMP + SMX (5) (100) ([5]; pteridine 30 μg/ml): 11.5 centimeters; zone including partial inhibition, TMP + SMX (5) (100) ([5]; pteridine 30 μg/ml): 14.5 centimeters

From patent publication US4795639A, “Potentiating formulations” (priority 1971, dated 1989)
